The target of one assay is T1, ABL2 (Homo sapiens, UniProt P42684).
T1 construct: endogenous in cells
Description: Kinobeads two-dose competition binding: ABL2. The conditions noted are these: sheet CATDS matrix 2; Gene Name ABL2.

Another assay addresses ABL1 (Homo sapiens, UniProt P00519). Kind of assay: Kinobeads two-dose competition binding: ABL1. The conditions noted are these: sheet CATDS matrix 2; Gene Name ABL1.
Another assay deals with T2, AAK1 (Homo sapiens, UniProt Q2M2I8).
T2 construct: to maximize the representation of endogenous proteins; endogenous in cells
Description: Kinobeads two-dose competition binding: AAK1.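 As to all read-outs here: kinobeads competition pulldown from cell lysate, compound preincubated 45 min at 4 °C, bead-bound protein measured by label-free mass spectrometry against DMSO vehicle control.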 The conditions noted are these: for CATDS: sheet CATDS matrix 2, Gene Name AAK1; for potency estimated from few doses: sheet "Kinobeads Drugmatrix - all", unit inferred, same values below 1000 recur in sheet "nanomolar", read-out: Kinobeads Drugmatrix - all: apparent Kd, AAK1.

The target in another assay is T3, ACAD11 (Homo sapiens, UniProt Q709F0).
T3 construct: endogenous in cells
T3 sequence (Q709F0 1-780): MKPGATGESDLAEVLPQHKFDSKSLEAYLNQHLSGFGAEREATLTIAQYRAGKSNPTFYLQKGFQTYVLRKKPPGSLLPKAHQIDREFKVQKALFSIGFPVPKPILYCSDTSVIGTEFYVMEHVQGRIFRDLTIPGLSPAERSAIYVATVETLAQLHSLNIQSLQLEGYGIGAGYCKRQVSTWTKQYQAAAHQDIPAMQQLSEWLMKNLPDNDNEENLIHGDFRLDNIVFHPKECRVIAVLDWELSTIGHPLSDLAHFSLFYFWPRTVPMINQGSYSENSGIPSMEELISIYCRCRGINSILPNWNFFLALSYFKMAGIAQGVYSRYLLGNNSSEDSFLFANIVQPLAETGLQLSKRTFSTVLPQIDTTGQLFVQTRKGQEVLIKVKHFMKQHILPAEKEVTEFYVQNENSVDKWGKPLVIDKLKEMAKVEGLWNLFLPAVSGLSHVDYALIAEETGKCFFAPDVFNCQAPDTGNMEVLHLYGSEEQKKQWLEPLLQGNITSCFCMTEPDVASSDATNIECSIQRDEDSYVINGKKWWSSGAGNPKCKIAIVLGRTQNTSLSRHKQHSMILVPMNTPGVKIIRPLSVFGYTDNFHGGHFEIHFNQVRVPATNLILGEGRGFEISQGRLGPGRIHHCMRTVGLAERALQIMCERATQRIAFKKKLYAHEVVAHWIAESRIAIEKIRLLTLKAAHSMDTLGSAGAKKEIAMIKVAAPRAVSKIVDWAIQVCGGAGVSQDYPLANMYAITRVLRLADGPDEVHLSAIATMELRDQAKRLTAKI
Kind of assay: Kinobeads two-dose competition binding: ACAD11. The conditions noted are these: sheet CATDS matrix 2; Gene Name ACAD11.

For a further assay, the target named is T4, ACOX1 (Homo sapiens, UniProt Q15067).
T4 construct: endogenous in cells
T4 sequence (Q15067 1-660): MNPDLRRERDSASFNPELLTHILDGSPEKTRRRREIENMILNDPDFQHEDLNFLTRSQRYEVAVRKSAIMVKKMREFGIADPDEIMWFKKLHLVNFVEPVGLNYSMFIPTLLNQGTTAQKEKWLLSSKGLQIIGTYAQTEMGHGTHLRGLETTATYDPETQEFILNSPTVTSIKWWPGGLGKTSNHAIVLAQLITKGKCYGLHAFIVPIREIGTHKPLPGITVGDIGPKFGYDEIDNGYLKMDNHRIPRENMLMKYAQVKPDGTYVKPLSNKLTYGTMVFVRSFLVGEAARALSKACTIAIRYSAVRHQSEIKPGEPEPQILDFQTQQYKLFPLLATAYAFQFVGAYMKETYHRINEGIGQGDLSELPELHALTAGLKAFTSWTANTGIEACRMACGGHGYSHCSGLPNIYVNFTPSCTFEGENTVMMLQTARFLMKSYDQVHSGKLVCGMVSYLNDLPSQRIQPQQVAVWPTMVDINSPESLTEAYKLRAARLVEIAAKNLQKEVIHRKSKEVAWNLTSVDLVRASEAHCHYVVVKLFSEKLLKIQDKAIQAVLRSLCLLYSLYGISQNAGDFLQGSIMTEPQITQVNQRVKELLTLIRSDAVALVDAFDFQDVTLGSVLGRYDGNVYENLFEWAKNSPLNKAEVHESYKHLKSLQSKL
Kind of assay: Kinobeads two-dose competition binding: ACOX1.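 Also: competition of compounds with immobilized broad-spectrum kinase inhibitor beads in cell lysate at 100 and 1,000 nM, 45 min at 4 °C, bead-bound protein quantified by label-free MS versus DMSO.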 The conditions noted are these: sheet CATDS matrix 2; Gene Name ACOX1.

T1 sequence (P42684 whole entry): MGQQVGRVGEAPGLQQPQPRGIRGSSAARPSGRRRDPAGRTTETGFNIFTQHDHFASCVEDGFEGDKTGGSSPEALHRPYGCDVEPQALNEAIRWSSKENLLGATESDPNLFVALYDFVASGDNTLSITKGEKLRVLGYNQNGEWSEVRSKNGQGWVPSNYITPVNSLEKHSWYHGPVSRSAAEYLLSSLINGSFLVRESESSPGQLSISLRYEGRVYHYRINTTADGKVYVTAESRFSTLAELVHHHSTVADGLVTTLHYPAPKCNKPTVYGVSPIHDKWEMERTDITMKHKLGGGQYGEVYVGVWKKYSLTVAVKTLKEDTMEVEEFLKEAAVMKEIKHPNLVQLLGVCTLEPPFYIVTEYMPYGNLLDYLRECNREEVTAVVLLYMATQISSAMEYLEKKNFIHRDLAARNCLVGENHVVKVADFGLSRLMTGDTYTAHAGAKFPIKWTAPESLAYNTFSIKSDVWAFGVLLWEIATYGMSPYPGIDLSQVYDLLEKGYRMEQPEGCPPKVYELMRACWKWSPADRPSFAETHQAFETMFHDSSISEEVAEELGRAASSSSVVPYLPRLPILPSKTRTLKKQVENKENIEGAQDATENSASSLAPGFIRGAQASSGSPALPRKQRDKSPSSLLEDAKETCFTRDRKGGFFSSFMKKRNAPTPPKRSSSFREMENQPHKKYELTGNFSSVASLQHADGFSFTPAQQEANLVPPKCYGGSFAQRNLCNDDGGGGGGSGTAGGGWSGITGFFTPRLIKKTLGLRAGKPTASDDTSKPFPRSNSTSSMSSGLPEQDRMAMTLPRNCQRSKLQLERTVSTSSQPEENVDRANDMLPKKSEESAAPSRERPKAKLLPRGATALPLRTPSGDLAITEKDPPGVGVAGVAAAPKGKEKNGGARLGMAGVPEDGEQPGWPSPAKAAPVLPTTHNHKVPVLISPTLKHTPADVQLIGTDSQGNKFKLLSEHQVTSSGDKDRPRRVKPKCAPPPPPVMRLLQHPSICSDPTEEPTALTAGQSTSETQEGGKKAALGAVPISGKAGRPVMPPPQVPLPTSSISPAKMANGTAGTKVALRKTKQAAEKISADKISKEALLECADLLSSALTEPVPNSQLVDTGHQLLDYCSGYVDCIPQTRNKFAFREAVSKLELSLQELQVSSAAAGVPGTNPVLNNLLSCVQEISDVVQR
ABL1, sequence (P00519 28-1130 limits assumed): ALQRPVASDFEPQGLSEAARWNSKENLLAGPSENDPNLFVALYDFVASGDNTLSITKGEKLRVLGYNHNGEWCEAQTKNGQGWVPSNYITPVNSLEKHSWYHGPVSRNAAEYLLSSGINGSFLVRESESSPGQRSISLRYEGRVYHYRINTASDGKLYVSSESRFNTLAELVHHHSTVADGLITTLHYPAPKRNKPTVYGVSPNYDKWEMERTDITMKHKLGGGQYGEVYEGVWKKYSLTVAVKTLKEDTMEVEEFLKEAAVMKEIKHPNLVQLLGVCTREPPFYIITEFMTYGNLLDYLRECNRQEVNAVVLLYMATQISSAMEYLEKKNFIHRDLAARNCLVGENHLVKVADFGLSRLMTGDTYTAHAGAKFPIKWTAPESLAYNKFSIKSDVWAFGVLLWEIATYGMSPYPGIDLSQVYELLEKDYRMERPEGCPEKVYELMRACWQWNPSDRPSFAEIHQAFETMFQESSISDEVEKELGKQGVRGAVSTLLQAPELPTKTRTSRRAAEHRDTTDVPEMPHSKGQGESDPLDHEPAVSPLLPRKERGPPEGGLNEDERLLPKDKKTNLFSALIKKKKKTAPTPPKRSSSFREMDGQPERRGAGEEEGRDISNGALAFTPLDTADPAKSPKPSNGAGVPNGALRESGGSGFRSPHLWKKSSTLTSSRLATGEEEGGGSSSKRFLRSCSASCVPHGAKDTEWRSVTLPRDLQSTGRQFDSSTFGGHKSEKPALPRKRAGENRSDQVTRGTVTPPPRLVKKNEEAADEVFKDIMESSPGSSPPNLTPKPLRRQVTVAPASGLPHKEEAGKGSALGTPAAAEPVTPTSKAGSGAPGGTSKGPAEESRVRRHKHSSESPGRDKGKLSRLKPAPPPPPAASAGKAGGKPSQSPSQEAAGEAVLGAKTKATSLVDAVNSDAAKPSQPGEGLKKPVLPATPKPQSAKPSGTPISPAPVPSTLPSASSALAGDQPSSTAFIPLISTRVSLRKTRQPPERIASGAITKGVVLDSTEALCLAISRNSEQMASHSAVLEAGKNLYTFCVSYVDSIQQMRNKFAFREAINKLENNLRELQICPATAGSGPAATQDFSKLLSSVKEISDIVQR
T2 sequence (Q2M2I8 whole entry): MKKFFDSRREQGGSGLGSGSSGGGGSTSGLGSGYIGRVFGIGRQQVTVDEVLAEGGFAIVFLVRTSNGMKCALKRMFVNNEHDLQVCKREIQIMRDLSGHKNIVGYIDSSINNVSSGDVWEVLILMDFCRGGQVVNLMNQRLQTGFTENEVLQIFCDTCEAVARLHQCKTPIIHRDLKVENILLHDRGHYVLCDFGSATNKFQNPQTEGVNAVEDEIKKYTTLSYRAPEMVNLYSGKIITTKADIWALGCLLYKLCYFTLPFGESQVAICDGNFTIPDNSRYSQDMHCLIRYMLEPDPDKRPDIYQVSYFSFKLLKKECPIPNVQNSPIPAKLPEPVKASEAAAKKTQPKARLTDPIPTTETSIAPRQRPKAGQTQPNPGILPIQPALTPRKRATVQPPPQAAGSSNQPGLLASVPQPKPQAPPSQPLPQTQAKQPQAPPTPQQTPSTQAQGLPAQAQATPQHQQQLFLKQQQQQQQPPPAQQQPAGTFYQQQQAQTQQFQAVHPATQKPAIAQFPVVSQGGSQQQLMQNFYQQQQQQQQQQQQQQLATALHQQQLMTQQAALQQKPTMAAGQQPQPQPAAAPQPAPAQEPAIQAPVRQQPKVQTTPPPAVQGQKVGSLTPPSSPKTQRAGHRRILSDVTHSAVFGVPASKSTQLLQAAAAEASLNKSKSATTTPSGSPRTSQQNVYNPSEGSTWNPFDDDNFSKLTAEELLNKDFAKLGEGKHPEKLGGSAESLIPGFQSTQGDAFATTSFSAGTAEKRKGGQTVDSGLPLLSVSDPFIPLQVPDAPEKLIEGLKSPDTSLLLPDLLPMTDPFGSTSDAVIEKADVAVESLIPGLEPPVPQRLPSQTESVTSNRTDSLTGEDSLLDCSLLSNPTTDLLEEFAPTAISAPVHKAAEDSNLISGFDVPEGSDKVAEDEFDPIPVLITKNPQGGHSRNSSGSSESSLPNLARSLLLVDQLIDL

For `Cc1nn2c(=O)cc(N3CCOCC3)nc2n1Cc1cccc(Cl)c1Cl` [GSK2342769A], the CATDS at ABL2, at ABL1, on AAK1, on ACAD11 and on ACOX1 was 0 throughout.

Consider `COc1cc2ncn(-c3cc(OCC4CCCCC4)c(C(N)=O)s3)c2cc1OC` [GSK204559A], for which the CATDS at ABL2, on ABL1, at AAK1, at ACAD11 and on ACOX1 was 0 throughout.

Turning to `COc1cc2ncn(-c3cc(OCc4ccccc4C(F)(F)F)c(C(C)=O)s3)c2cc1OC` [GSK1030059A], the CATDS on ABL2, on ABL1, at AAK1, at ACAD11 and at ACOX1 was 0 in each case.

In the case of `COc1ccc(Nc2nccc(-c3ccc(NC(=O)c4cc5cc(F)ccc5[nH]4)cc3)n2)cc1` [GSK1229496A], the CATDS at ABL2, on ABL1, at AAK1, on ACAD11 and at ACOX1 was 0 throughout. At AAK1, the potency estimated from few doses was over 1 µM.

In the case of `O=c1cc(N2CCOCC2)nc2n(Cc3cccc(F)c3)ccn12` [GSK2297430A], the CATDS at ABL2, at ABL1, at AAK1, at ACAD11 and on ACOX1 was 0 throughout.

Regarding `NCC(NC(=O)c1cc(-c2ccnc3[nH]ccc23)cs1)c1ccccc1` (centres unmarked) [GSK1229959A], the CATDS turned out to be 0 at ABL2; 0 on ABL1; 0.03638 at AAK1; 0 on ACAD11; 0 at ACOX1. In addition, the potency estimated from few doses at AAK1 is 0.0796 µM.

Consider `O=c1cc(N2CCOCC2)nc2n(Cc3cccc(Cl)c3Cl)ccn12` [GSK2286295A], for which the CATDS on ABL2, on ABL1, at AAK1, on ACAD11 and at ACOX1 was 0 each time.

Turning to `Cc1cccc(Cn2ccn3c(=O)cc(N4CCOCC4)nc23)c1` [GSK2297542A], the CATDS on ABL2, at ABL1, on AAK1, on ACAD11 and on ACOX1 was 0 each time.

`Cc1ccc(NC(=O)c2cccc(C#N)c2)cc1-c1ccc(C(=O)Nc2ccncc2)cc1` [GSK1398463A]: the CATDS on ABL2, at ABL1, at AAK1, on ACAD11 and at ACOX1 was 0 in each case.

For the compound `NCCCC(NC(=O)c1cc(Br)c(-c2ccnc3[nH]ccc23)s1)c1ccccc1` (centres unmarked) [GSK1287544A], the CATDS on ABL2, on ABL1, at AAK1, on ACAD11 and at ACOX1 was 0 in each case.

Regarding `Cc1cc(Nc2ncc(Cl)c(Nc3ccccc3S(=O)(=O)C(C)C)n2)c(OC(C)C)cc1C1CCNCC1` [Ceritinib, reference compound], the CATDS at ABL2, at ABL1, at AAK1, at ACAD11 and at ACOX1 was 0 throughout.

For the compound `COc1cc(Nc2nccc(N3CCC(NC(=O)C4COc5ccccc5O4)C3)n2)cc(OC)c1OC` (centres unmarked) [GSK1379761A], the CATDS on ABL2, on ABL1, at AAK1, on ACAD11 and at ACOX1 was 0 throughout. In addition, the potency estimated from few doses at AAK1 was over 1 µM.

For `COc1cccc(NC(=O)NC2CCN(c3ccnc(Nc4cc(OC)c(OC)c(OC)c4)n3)C2)c1` (centres unmarked) [GSK1379763A], the potency estimated from few doses at AAK1 was over 1 µM.

On to `COc1cc2ncnc(Nc3cccc(Br)c3)c2cc1OC` [GI230329A], for which the CATDS on ABL2, on AAK1, at ACAD11 and at ACOX1 was 0 throughout.

As to `COc1cc(Nc2c(C#N)cnc3cc(OCCCN4CCN(C)CC4)c(OC)cc23)c(Cl)cc1Cl` [Bosutinib, reference compound], the CATDS at ACAD11 and at ACOX1 was 0 each time.

As to `CNC(=O)c1ccccc1Sc1ccc2c(/C=C/c3ccccn3)n[nH]c2c1` [Axitinib, reference compound], the CATDS on ABL2, at AAK1, at ACAD11 and at ACOX1 was 0 in each case.

Turning to `C#Cc1cccc(Nc2ncnc3cc(OCCOC)c(OCCOC)cc23)c1` [Erlotinib, reference compound], the CATDS on ABL1 and at AAK1 was 0 throughout.

In the case of `C[C@@H](Oc1cc(-c2cnn(C3CCNCC3)c2)cnc1N)c1c(Cl)ccc(F)c1Cl` [Crizotinib, reference compound], the CATDS on ABL2 is 0.04718; on AAK1 it was 0; on ACAD11 it was 0; at ACOX1, 0.

In the case of `Cc1nc(Nc2ncc(C(=O)Nc3c(C)cccc3Cl)s2)cc(N2CCN(CCO)CC2)n1` [Dasatinib, reference compound], the CATDS on ABL2 turned out to be 0.1826; on AAK1, 0; at ACAD11 it was 0; on ACOX1, 0.

With `O=c1[nH]ccc2nc(N[C@@H]3CCCNC3)nc(Nc3ccc(S(=O)(=O)N4CCOCC4)cc3)c12` [GSK2177277A], the CATDS amounted to 0 on ABL2, 0 at ABL1, 0.01814 at AAK1 and 0 at ACOX1. Besides, the potency estimated from few doses at AAK1 was 0.0641 µM.

For `COc1ccc(CNC(=O)NC2CCN(c3ccnc(Nc4cc(OC)c(OC)c(OC)c4)n3)C2)cc1` (centres unmarked) [GSK1379748A], the potency estimated from few doses at AAK1 was over 1 µM.

Take `CC(C)(C)c1nc(-c2cccc(NS(=O)(=O)c3c(F)cccc3F)c2F)c(-c2ccnc(N)n2)s1` [Dabrafenib, reference compound]: the CATDS stood at 0.02813 at ABL2, 0 on AAK1, 0 on ACAD11 and 0 on ACOX1.

With `O=C(Nc1c[nH]nc1-c1nc2ccc(CN3CCOCC3)cc2[nH]1)NC1CC1` [AT-9283, reference compound], the CATDS at ABL2 was 0; on AAK1, 0.0448; at ACAD11 it was 0; at ACOX1, 0.

As to `COc1cc2ncnc(Nc3ccc(F)c(Cl)c3)c2cc1OCCCN1CCOCC1` [Gefitinib, reference compound], the CATDS on AAK1 is 0.

For `CNc1nc(-c2ccc3c(N)n[nH]c3c2)cc(N2C[C@@H](C(=O)NC3CCCCC3)CC[C@H]2C)n1` [GSK2334470], the CATDS at ABL2, on AAK1, on ACAD11 and on ACOX1 was 0 throughout.

On to `CO[C@@H](C(=O)N1Cc2n[nH]c(NC(=O)c3ccc(N4CCN(C)CC4)cc3)c2C1)c1ccccc1` [Danusertib, reference compound], for which the CATDS on ABL2 was 0.05811; on AAK1, 0; on ACAD11, 0; on ACOX1, 0.

Values taken from PMC11062922 (Nature Chemical Biology, 2023).
